The term MIC denotes the lowest concentration found to suppress growth. Lower therefore signals greater potency. In general, inhibition refers to the relative decrease from the control value, in per cent.

SMILES strings stand for the structures.

For 1 compound, MIC and inhibition results are on record in patent US20190159457A1, “Combinatorial Compositions of Benzoxaboroles and Biologic Agents” (Boragen, Inc., priority 2017, published 2019).

What all share (assay type): cell-based
Assay [1] concerns Bacillus subtilis. The assay is described as follows: Toxicity of oxaborole compound on Bacillus subtilis (MIC). The following applies: 48 hours, about 37 °C, 1×10^5 CFU/mL. As for the experimental part: The final concentration of Bacillus subtilis was 1×10^5 CFU/mL.
Plates sealed with clear polyester film (VWR) were incubated at a temperature of about 37° C. The progress of Bacillus subtilis growth was monitored at 48 hours.

Assay [2] deals with Sclerotinia sclerotiorum 1980 (Ss1980). The assay is described as follows: Inhibition rate of fungal hyphae growth on PDA petri dish. The settings on record: Bacillus subtilis −. As to the method:
(§1) The synergistic or additive effect of Bacillus subtilis in combination with an oxaborole compound on fungicidal compounds was evaluated by determining the inhibition rate of fungal growth on a petri dish. The oxaborole compound used for the example was BAG8. The inhibition rate was calculated as: inhibition %=(X−Y)/X*100, where X is the diameter of fungal hyphae grown on control without any fungicidal compound or beneficial bacteria.
(§2) The ability of Bacillus subtilis to inhibit growth of the four example fungal pathogens was evaluated by determining the inhibition rate of fungal hyphae on the PDA petri dishes (diameter of 100 mm) with the bacteria (initial bacterial cells: 2000CFU). 0.2 mL of Bacillus subtilis (lx 10^3, 1×10^4, 1×10^5, 1×10^6FU/mL) was spread on the PDA plates. The plates were cultured at 37° C. overnight, followed by inoculating the fresh fungal agar plugs ( 3/16 inch, diameter). The PDA plates with fungal agar plugs were cultured at 25° C. for 4-7 days, and then diameters of hyphae were measured. The inhibition rate was calculated as: inhibition %=(X−Y)/X*100, where X is the diameter of fungal hyphae grown on control without the bacteria. Inhibition rate of 100% means that the fungus cannot grow on PDA medium.
(§3) Testing was performed to compare inhibition performance of BAG8 by itself versus BAG8 in combination with Bacillis subtilis. Initially, the PDA plates (diameter of 100 mm) were prepared with various concentrations (0, 0.2, 0.5, 1, 2, 5 and 10 ug/mL) of the BAG8 compound;
(§4) Then, 0.2 mL of Bacillus subtilis (1×10^4CFU/mL) were spread onto some of the PDA plates with fungicide compounds. The […] Botrytis cinerea, Fusarium oxysporum f sp. Cubense, Mycosphaerella graminicola, and Sclerotinia sclerotiorum.
(§5) The PDA plates with the combined BAG8 and Bacillus subtilis were inoculated with the fresh fungal agar plugs ( 3/16 inch, diameters) and the plates were cultured at 25° C. for 4-7 days, and then diameters of hyphae were measured. The inhibition rate was calculated as: inhibition %=(X−Y)/X*100, where X is the diameter of fungal hyphae grown on control without the bacteria.

The test system of assay [3] is Fusarium oxysporum f sp. cubense tropical race 4 (FOC.TR4). The assay is described as above. The following applies: Bacillus subtilis −. As for the experimental part: as §1, §2, §3, §4, §5
For assay [4], the system named is Mycosphaerella graminicola (SLB). The assay is described as above. The settings on record: Zymoseptoria tritici, Bacillus subtilis −. As to the method:
as §1, §2, §3, §4, §5

Assay [5] has as its system Botrytis cinerea B05.10 (B05.10). The description is as above. The settings on record: Bacillus subtilis −. As for the experimental part:
as §1, §2, §3, §4, §5

On to `OB1OCc2cc(Cl)ccc21` [BAG8, 5-chlorobenzo[c][1,2]oxaborol-1(3H)-ol], for which, in assay [1], the MIC is more than 25 µg/mL. For the same compound, the inhibition at 0.2 µg/mL was 12% in assay [2] (BAG8 0.2 ug/mL), 9% in assay [3] (BAG8 0.2 ug/mL), 6% in assay [4] (BAG8 0.2 ug/mL) and 10% in assay [5] (BAG8 0.2 ug/mL). Further, the inhibition at 0.5 µg/mL was found to be 48% in assay [2] (BAG8 0.5 ug/mL), 47% in assay [3] (BAG8 0.5 ug/mL), 38% in assay [4] (BAG8 0.5 ug/mL) and 23% in assay [5] (BAG8 0.5 ug/mL). The inhibition at 1 µg/mL in assay [2] (BAG8 1 ug/mL) came to 94%; in assay [3] (BAG8 1 ug/mL), 95%; in assay [4] (BAG8 1 ug/mL), 93%; in assay [5] (BAG8 1 ug/mL) it was 69%. Besides, the inhibition at 2 µg/mL in assay [2] (BAG8 2 ug/mL) worked out at 98%; in assay [3] (BAG8 2 ug/mL), 94%; in assay [4] (BAG8 2 ug/mL), 96%; in assay [5] (BAG8 2 ug/mL), 98%.
